Laboratory results: ChEMBL document CHEMBL1201862, “PubChem BioAssay data set” (2004)
Calls of active or inactive are those of the source.

Key:
[1] = biological target: Chaperone protein dnaK (Escherichia coli, UniProt C3TRK2); experiment: DnaK beta-domain binding affinity, SAR follow-up, orthogonal assay for DnaK modulator project, biophysical, isothermal titration calorimetry, full-length DnaK (AID 1495)
[2] = biological target: Neuropeptides B/W receptor type 1 (Homo sapiens, UniProt P48145); experiment: Fluorescence-based dose response cell-based high throughput screening assay to identify antagonists of the G-protein coupled receptor 7 (GPR7). [Related pubchem assays: 1952 (Screening assay (GPR7 antagonists).), 1880 (Summary AID.)]; type: functional
Neuropeptides B/W receptor type 1, sequence (P48145 whole entry): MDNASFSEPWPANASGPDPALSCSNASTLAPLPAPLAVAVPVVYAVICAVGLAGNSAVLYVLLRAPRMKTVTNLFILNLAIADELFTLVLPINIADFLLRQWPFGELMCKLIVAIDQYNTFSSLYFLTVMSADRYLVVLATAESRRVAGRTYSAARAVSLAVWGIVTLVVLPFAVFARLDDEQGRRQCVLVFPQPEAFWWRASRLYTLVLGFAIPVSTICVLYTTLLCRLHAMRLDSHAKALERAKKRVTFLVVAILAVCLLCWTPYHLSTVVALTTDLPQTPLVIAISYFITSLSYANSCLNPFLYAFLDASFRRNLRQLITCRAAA

[3] = biological target: Melanin-concentrating hormone receptor 1 (Homo sapiens, UniProt Q99705); experiment: Fluorescence-based counterscreen for antagonists of the G-protein coupled receptor 7 (GPR7): cell-based high throughput dose response assay to identify antagonists of the melanin-concentrating hormone receptor 1 (MCHR1).; type: functional
Melanin-concentrating hormone receptor 1, sequence (Q99705 whole entry): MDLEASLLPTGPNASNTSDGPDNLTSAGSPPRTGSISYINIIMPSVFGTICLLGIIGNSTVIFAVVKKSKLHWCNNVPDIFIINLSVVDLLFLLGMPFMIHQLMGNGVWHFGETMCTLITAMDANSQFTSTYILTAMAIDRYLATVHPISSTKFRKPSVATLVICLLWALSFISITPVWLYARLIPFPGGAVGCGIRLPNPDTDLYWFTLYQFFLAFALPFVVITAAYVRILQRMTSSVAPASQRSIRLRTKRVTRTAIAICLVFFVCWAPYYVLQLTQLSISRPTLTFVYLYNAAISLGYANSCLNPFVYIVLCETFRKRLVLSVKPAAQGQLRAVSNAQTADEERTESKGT

[4] = biological target: Procathepsin L (Homo sapiens, UniProt P07711)
[5] = biological target: Aspartyl aminopeptidase (Plasmodium falciparum 3D7, UniProt Q8I2J3)
Aspartyl aminopeptidase, sequence (Q8I2J3 whole entry): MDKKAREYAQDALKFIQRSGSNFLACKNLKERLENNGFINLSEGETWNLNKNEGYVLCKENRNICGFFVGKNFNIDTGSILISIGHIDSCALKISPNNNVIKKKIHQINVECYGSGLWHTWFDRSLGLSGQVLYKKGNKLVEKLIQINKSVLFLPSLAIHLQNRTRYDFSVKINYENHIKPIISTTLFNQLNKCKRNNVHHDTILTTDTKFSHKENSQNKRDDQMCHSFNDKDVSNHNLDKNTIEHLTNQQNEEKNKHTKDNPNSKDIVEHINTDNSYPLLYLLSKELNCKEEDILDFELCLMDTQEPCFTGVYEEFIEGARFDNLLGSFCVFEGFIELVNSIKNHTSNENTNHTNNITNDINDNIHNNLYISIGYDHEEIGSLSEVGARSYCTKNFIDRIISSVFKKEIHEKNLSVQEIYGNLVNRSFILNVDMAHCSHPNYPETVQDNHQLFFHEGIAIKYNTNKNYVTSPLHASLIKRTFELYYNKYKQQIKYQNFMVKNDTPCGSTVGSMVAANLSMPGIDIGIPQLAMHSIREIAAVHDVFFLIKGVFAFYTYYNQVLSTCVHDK

[6] = biological target: DNA dC->dU-editing enzyme APOBEC-3G (Homo sapiens, UniProt Q9HC16); experiment: Dose Response confirmation of small molecule APOBEC3G DNA Deaminase Inhibitors via a fluorescence-based single-stranded DNA deaminase assay. [Related pubchem assays (depositor defined):AID493012, AID493028]; type: functional
DNA dC->dU-editing enzyme APOBEC-3G, sequence (Q9HC16 whole entry): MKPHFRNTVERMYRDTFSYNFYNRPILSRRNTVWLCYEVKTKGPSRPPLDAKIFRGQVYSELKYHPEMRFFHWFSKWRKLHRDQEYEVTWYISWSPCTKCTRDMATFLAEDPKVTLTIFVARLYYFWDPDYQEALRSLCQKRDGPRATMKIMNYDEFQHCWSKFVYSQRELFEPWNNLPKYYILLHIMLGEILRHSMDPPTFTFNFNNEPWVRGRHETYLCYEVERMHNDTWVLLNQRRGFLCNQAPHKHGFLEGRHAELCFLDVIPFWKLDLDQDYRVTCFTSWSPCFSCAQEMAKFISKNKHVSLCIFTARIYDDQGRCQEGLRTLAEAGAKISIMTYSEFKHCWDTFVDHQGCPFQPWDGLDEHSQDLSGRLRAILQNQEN

[7] = biological target: T1, Mannose-6-phosphate isomerase (Homo sapiens, UniProt P34949); experiment: human PMI inhibitors, high substrate, primary screen, biochemical, fluorescence intensity, high mannose 6-phosphate (AID 1220)
T1 sequence (P34949 whole entry): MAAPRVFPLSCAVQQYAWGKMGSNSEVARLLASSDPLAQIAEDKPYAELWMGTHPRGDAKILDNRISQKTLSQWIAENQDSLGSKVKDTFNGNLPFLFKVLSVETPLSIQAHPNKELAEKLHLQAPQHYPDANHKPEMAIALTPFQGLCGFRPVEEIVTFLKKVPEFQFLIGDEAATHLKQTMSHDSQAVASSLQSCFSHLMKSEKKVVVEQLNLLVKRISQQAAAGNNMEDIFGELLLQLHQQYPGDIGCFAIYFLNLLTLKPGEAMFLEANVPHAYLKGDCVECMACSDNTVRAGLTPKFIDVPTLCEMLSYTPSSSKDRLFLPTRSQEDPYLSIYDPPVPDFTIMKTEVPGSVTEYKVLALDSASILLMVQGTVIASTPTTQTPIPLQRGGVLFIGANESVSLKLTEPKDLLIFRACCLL

[8] = biological target: T1, Mannose-6-phosphate isomerase; experiment: inhibitors of human PMI, primary screen, biochemical, fluorescence intensity, coupled assay (AID 1209)
[9] = biological target: DNA dC->dU-editing enzyme APOBEC-3A (Homo sapiens, UniProt P31941); experiment: APOBEC3A DNA deaminase inhibitors, dose response, biochemical (AID 504722); type: functional
[10] = biological target: T2, Polyadenylate-binding protein 1 (Homo sapiens, UniProt P11940); experiment: PABP1 MLLE–PAM2 interaction inhibitors, dose response, miRNA deadenylation inhibitor project, biochemical, fluorescence polarization, Cy5-PAM2 peptide, secondary (AID 602260); type: functional; settings: read-out: IC50_Mean
T2 sequence (P11940 whole entry): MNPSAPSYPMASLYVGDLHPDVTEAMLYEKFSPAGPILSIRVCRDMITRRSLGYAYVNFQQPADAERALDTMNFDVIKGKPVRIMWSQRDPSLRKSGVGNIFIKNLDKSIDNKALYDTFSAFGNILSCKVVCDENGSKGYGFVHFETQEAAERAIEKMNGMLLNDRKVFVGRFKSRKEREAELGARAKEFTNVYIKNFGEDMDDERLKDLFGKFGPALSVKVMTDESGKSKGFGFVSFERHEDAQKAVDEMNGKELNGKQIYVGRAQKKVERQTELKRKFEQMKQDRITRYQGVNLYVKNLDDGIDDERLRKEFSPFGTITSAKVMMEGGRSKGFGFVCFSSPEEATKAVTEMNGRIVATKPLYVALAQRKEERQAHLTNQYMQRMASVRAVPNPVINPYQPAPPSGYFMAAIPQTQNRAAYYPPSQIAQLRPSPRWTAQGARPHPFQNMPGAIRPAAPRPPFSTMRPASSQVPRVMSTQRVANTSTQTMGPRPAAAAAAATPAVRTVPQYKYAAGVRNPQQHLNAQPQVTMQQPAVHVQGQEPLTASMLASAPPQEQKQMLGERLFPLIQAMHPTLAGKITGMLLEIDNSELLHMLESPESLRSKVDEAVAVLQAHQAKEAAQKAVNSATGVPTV

[11] = biological target: Caspase-7 (Homo sapiens, UniProt P55210); experiment: procaspase-7 activators, dose response, counter-screen for procaspase-3 activator project, biochemical, absorbance (AID 489013)
Caspase-7, sequence (P55210 24-198 limits assumed): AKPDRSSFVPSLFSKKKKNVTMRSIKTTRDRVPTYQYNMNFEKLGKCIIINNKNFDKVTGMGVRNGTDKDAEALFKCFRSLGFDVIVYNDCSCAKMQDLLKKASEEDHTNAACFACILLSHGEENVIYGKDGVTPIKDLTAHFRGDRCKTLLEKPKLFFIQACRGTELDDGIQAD
Caspase-7, sequence (P55210 207-303 limits assumed): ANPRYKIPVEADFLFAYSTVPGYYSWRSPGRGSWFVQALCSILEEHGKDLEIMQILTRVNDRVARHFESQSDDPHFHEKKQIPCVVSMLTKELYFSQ

[12] = biological target: T2, Polyadenylate-binding protein 1; experiment: PABP1 MLLE–PAM2 binding inhibitor potency, dose response, biochemical, fluorescence polarization, FITC-PAM2 peptide (AID 602259); type: functional; settings: read-out: IC50_Mean
[13] = biological target: T3, Caspase-3 (Homo sapiens, UniProt P42574); experiment: procaspase-3 activators, dose response, biochemical, absorbance (AID 489014)
T3 sequence (P42574 whole entry): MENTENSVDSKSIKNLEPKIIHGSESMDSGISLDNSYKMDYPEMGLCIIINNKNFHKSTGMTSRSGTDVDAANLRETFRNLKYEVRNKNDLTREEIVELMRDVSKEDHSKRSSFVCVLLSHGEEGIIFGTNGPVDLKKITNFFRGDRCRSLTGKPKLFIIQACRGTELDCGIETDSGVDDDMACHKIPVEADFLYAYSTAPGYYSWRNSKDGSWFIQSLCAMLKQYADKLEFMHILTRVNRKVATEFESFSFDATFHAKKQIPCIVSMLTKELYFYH

[14] = cells; type: functional
[15] = biological target: Phosphoethanolamine/phosphocholine phosphatase (Homo sapiens, UniProt Q8TCT1); experiment: SAR assay for compounds that inhibit PHOSPHO1. [Related pubchem assays (depositor defined):AID1545, AID1565, AID1574]
Phosphoethanolamine/phosphocholine phosphatase, sequence (Q8TCT1 whole entry): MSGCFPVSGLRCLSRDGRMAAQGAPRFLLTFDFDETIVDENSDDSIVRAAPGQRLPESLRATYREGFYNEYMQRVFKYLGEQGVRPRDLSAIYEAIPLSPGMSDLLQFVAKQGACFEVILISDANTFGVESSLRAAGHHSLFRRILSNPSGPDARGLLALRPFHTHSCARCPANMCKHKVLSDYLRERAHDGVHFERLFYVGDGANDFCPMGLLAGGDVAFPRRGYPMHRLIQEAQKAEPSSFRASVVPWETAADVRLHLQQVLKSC

[16] = biological target: T1, Mannose-6-phosphate isomerase; experiment: PMI enzyme inhibitors, confirmation, biochemical, fluorescence intensity (AID 1535)
[17] = biological target: Phosphomannomutase 2 (Homo sapiens, UniProt O15305); experiment: Counter screen SAR assay for PMM2 inhibitors via a fluorescence intensity assay. [Related pubchem assays (depositor defined):AID1545, AID1574]
[18] = biological target: Kappa-type opioid receptor (Homo sapiens, UniProt P41145); experiment: SAR analysis of small molecule agonists of the kappa opioid receptor via a luminescent beta-arrestin assay - Set 2. [Related pubchem assays (depositor defined):AID1777, AID1785, AID1786, AID1966, AID2133, AID2136, AID2284, AID449737]; type: functional
Kappa-type opioid receptor, sequence (P41145 whole entry): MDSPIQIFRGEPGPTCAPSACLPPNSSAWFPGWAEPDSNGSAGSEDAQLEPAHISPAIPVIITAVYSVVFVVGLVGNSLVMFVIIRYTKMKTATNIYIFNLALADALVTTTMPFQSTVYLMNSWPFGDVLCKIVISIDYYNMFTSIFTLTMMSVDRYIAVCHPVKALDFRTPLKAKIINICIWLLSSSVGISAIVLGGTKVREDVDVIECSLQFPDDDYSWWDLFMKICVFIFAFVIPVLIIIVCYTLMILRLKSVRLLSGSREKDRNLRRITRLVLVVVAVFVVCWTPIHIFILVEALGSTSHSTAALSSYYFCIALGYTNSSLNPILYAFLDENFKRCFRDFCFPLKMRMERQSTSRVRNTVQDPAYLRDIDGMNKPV

[19] = biological target: T2, Polyadenylate-binding protein 1; experiment: PABP inhibition in translation initiation, SAR follow-up (AID 435018); type: functional
[20] = biological target: Eukaryotic translation initiation factor 4H (Homo sapiens, UniProt Q15056); experiment: eIF4H inhibition in translation initiation, SAR follow-up (AID 435011); type: functional
[21] = cytotoxicity in KRAS-transformed pancreatic duct cells, primary screen, cell-based, fluorescence, HTS (AID 431); type: functional; settings: Homo sapiens;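 note: cell line used: HPDE-C7K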
[22] = cytotoxicity in HPDE-C7 cells, cell-based, fluorescence, HTS (AID 430); type: functional; settings: Homo sapiens
[23] = biological target: Intestinal-type alkaline phosphatase (Mus musculus, UniProt P24822); experiment: PubChem AID 488874; type: functional
Intestinal-type alkaline phosphatase (Mus musculus, UniProt P24822), sequence (P24822 whole entry): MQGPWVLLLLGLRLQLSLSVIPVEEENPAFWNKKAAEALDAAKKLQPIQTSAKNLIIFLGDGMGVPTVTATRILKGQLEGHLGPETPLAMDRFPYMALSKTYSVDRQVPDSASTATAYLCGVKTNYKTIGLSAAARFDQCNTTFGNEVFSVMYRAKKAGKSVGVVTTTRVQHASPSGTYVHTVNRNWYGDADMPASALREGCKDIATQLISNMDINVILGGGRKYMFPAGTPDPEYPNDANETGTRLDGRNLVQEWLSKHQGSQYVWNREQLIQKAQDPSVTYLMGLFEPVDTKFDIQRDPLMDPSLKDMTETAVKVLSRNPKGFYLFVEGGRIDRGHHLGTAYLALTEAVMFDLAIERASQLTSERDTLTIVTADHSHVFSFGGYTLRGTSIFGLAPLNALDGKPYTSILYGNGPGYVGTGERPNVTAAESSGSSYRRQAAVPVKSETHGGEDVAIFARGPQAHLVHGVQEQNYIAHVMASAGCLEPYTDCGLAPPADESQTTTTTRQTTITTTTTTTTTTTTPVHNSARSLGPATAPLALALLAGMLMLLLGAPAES

[24] = biological target: T4, Alkaline phosphatase, tissue-nonspecific isozyme (Homo sapiens, UniProt P05186); experiment: TNAP enzyme activators, dose response, selectivity assay for human IAP activator project, biochemical, TNAP isozyme, human IAP uHTS hits (AID 488886); type: functional;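 note: potency of compounds raising TNAP activity as a selectivity check on IAP activators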
T4 sequence (P05186 whole entry): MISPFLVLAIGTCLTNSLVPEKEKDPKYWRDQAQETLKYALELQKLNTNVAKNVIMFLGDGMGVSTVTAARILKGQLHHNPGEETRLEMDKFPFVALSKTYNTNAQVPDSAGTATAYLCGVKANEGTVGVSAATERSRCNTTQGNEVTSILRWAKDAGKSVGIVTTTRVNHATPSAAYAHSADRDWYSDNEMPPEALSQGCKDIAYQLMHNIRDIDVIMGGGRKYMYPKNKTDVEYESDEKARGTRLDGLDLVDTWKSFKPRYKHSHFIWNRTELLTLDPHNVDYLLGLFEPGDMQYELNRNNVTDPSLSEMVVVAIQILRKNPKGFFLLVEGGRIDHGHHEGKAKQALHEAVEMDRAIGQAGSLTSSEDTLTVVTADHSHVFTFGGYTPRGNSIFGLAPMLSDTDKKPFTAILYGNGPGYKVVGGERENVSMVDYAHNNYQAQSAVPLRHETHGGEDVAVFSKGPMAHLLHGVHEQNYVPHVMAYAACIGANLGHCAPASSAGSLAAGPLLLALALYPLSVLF

[25] = biological target: T5, Intestinal-type alkaline phosphatase (Homo sapiens, UniProt P09923); experiment: human IAP activators, dose response, biochemical, luminescent, uHTS hits, set 2 (AID 488817); type: functional;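 note: potency of activators that raise enzyme activity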
T5 sequence (P09923 whole entry): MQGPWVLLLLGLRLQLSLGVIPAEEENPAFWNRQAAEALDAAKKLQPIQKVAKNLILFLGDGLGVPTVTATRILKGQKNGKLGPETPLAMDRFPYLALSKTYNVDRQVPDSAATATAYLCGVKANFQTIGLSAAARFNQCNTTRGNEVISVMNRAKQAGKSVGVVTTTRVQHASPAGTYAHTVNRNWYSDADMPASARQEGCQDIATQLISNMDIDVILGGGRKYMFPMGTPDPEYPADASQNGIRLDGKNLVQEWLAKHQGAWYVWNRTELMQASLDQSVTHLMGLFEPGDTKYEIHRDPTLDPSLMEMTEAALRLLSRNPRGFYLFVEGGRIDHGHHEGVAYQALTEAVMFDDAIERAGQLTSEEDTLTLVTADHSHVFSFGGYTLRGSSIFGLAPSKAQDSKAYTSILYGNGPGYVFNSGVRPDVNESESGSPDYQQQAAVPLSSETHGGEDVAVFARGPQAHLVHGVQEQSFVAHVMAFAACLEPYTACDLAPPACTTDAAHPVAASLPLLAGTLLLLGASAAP

[26] = biological target: T5, Intestinal-type alkaline phosphatase; experiment: human intestinal alkaline phosphatase activators, dose response, biochemical, luminescence, uHTS hits (AID 463120); type: functional
[27] = biological target: G-protein coupled receptor 55 (Homo sapiens, UniProt Q9Y2T6); experiment: GPR55 agonists via beta-arrestin recruitment, primary screen, imaging, U2OS cells, beta-arrestin-GFP redistribution (AID 1961); type: functional

Chaperone protein dnaK, sequence (C3TRK2 whole entry): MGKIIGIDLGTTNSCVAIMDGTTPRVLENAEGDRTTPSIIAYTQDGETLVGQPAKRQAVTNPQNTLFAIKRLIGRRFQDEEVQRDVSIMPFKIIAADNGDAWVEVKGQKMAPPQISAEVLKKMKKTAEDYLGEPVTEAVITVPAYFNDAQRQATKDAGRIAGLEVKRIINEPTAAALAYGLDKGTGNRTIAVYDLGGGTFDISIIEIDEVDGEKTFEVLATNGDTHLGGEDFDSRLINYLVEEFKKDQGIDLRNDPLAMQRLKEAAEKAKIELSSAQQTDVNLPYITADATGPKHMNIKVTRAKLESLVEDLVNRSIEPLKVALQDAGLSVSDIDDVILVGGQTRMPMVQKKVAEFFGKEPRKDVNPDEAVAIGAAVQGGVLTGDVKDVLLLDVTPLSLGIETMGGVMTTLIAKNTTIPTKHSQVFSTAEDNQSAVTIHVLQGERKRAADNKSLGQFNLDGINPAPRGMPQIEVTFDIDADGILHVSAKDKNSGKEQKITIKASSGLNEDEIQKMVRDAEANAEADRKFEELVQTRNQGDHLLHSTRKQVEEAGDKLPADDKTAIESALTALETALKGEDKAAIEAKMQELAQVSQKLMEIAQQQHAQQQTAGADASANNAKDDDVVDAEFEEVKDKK

For CC(Cc1ccc(F)cc1)NC(=O)c1cccs1 (configuration not stated), the Kd [1] was 28 µM (inactive).
In the case of O=C(NCc1cccnc1)c1cc(-c2ccc(Cl)cc2)oc1C(F)(F)F, the IC50 [2] is reported as > 14.6 µM (not active) and the IC50 [3] is reported as 11.9 µM (not active).
In the case of Cc1cc(C)n2c(S)nnc2n1, the IC50 [4] is reported as > 59.6 µM (not active), the IC50 [5] is reported as 6.41 µM (active) and the IC50 [6] is reported as 17 µM (active). The IC50 [7] was > 50 µM (not active), the IC50 [8] was 43.2 µM (active) and the IC50 [9] was > 100 µM (inactive).
In the case of COc1ccc(C2=NC(=O)/C(=C\c3cc(OC)c(OC)c(OC)c3)O2)cc1, the IC50 [10] is reported as > 66 µM (inactive), the EC50 [11] is reported as > 85.2 µM (inactive) and the IC50 [12] is reported as > 66 µM (inactive). The EC50 [13] was 0.42 µM (active) and the IC50 [14] was 1.18 µM (active).
In the case of O=C1c2ccccc2C(=O)c2c1ccc1c(=O)n(-c3ccc(Cl)cc3)sc21, the IC50 [15] is reported as 0.82 µM (active), the IC50 [16] is reported as > 50 µM (inactive) and the IC50 [17] is reported as > 100 µM (inactive).
In the case of O=C(CN(Cc1cccs1)C(=O)c1cccnc1)NC1CCCCC1, the EC50 [18] is reported as > 20 µM (inactive).
In the case of COCc1ccc(C(=O)OCC(=O)Nc2ccc([N+](=O)[O-])cc2OC)cc1, the IC50 [19] is reported as > 100 µM (inactive) and the IC50 [20] is reported as > 100 µM (inactive).
In the case of O=c1cc(-c2ccccc2)[nH]n1-c1nc2ccccc2[nH]1, the EC50 [21] is reported as 2.21 µM (active), the EC50 [22] is reported as 2.73 µM (active) and the IC50 [23] is reported as 36.8 µM (active). For the same compound, the EC50 [24] was 17.1 µM (active), the EC50 [25] was 14.8 µM (active) and the EC50 [26] was 11.5 µM (active).
For NC(=S)N/N=C/c1c[nH]c2ccc(OCc3ccccc3)cc12, the EC50 [27] was 0.874 µM (active).
